Patent publication US20100190856A1, “Novel Polyhydroxylated Compounds as Fatty Acid Synthase (FASN) Inhibitors” (UNIVERSIDAD COMPLUTENSE DE MADRID, priority 2007, published 2010)
Entries after “also recorded” stand apart in the source; their conditions may differ.

Columns and labels:
[1] = test system: SK-Br3 breast cancer cells; assay: MTT cytotoxicity assay, SK-Br3 breast cancer cells; assay type: cell-based, human; conditions: Homo sapiens, SK-BR-3, 48 h, MTT, 48 h, read-out: IC50, growth inhibition, SK-Br3
Experimental: (§1) MCF-7 and MDA-MB-231 breast cancer cells were obtained from the American Type Culture Collection (ATCC) and were routinely grown in Dulbecco's modified Eagle's medium (DMEM, Gibco) containing 10% fetal bovine serum (FBS, Bio-Whittaker), 1% L-glutamine, 1% sodium pyruvate, 50 U/mL penicillin and 50 μg/mL streptomycin. SK-Br3 breast cancer cells were obtained from Eucellbank (Universidad de Barcelona, Spain) and were passaged in McCoy's 5 A medium containing 10% FBS, 1% L-glutamine, 1% sodium pyruvate, 50 U/mL penicillin and 50 μg/mL streptomycin. Non-malignant fibroblasts N-1 were obtained from Eucellbank (Universidad de Barcelona, Spain) and were passaged in DMEM medium containing 10% FBS, 1% L-glutamine, 1% sodium pyruvate, 50 U/mL penicillin and 50 μg/mL streptomycin. The cells remained free of Mycoplasma and were propagated in adherent culture according to established protocols. Cells were maintained at 37° C. in a humidified atmosphere of 95% air and 5% CO2.
(§2) Drug sensitivity was determined using a standard colorimetric MTT (3-4,5-dimethylthiazol-2-yl-2,5-diphenyltetrazolium bromide) assay. Briefly, cells were plated out at a density of 7×10^3 cells/100 μL/well in 96-well microtitre plates and allowed an overnight period for attachment. Then the medium was removed and fresh medium along with various concentrations of the tested compound were added to the cultures for a period of 48 h. Following the treatment, the cells were fed with drug-free medium (100 μL/well) and 10 μL of MTT solution (5 mg/mL; Sigma, St. Louis, Mo.), and the incubation was prolonged for 3 h at 37° C. After carefully removing the supernatants, the MTT-formazan crystals formed by metabolically viable cells were dissolved in dimethyl sulphoxide (100 μL/well) and the absorbance was measured at 570 nm in a multi-well plate reader (Model Anthos Labtec 2010 1.7 reader).

[2] = test system: MCF-7 breast cancer cells; assay: MTT cytotoxicity assay, MCF-7 breast cancer cells; assay type: cell-based, human; conditions: Homo sapiens, MCF7, MCF-7 cells, 48 h, read-out: IC50, growth inhibition, MCF-7
Experimental: as §1, §2

[3] = test system: MDA-MB-231 breast cancer cells; assay: MTT cytotoxicity assay, MDA-MB-231 breast cancer cells; assay type: cell-based, human; conditions: Homo sapiens, MDA-MB-231 cells, 48 h, read-out: IC50, growth inhibition, MDA-MB-231
Experimental: as §1, §2

[4] = test system: Non-malignant fibroblasts N-1; assay: MTT cytotoxicity assay, non-malignant fibroblasts N-1; assay type: cell-based; conditions: for IC50: Fibroblast, non-malignant fibroblasts, MTT, 48 h, read-out: IC50, growth inhibition, Fibroblasts; for effects in cell death / morphology changes in non-malignant cells: up to doses three-fold their cytotoxic IC50 value in tumoral cells
Experimental: as §1, §2

FASN = target: T1, FASN (Homo sapiens, UniProt P49327); assay: Fatty acid synthase activity assay in SK-Br3 cells (NADPH oxidation, particle-free supernatants); assay type: cell-based; design: FASN activity, % of control cells / FASN activity reduced to / reduction of FASN activity: concentration or dose not given beside the values; conditions: for inhibition of FASN activity (in words): SK-Br3 cells treated 6, 12 and 24 hours; for FASN activity reduced to: 12 h exposure
T1 construct: endogenous in cells; host or cells: SK-Br3 breast cancer cells
Experimental: FASN activity of compounds a, b, e, f, h, i, k, m and q was assayed in particle-free supernatants by recording spectrophotometrically at 37° C. (Lambda Bio 20, Perkin Elmer, EUA; using UV Kinlab 2.80.02 software) the decrease of A340nm due to the oxidation of NADPH, as we previously described. After 6, 12, 24 h of exposure to the tested compound, the cells were harvested by treatment with trypsin-EDTA solution, pelleted by centrifugation, washed twice and resuspended in cold PBS. The cells were sonicated during 30 min at 4° C. (PSelecta ultrasons) and centrifuged for 15 min at 4° C. to keep supernatants particle-free. A sample was taken to measure the protein content by a BioRad assay (Bio-Rad Laboratories). One-hundred and twenty micrograms of protein were pre-incubated during 15 min at 37° C. in 0.2 M of potassium phosphate buffer, pH 7.0, for temperature equilibration. The sample was then added to the reaction mixture: 200 mM potassium phosphate buffer, pH 7.0, 1 mM EDTA (Sigma), 1 mM dithiothreitol (Sigma), 30 μM acetyl-CoA (Sigma), 0.24 mM NADPH (Sigma), in 0.3 mL reaction volume were monitored at 340 nm for 3 min to measure the background NADPH oxidation. After the addition of 50 μM of malonyl-CoA (Sigma), the reaction was assayed for additional 10 min to determine FASN-dependent oxidation of NADPH. Rates were corrected for the background rate of NADPH oxidation in the presence of acetyl-CoA. FASN activity was expressed in nmol NADPH oxidized min^−1 mg protein^−1.

T1 sequence (P49327 whole entry): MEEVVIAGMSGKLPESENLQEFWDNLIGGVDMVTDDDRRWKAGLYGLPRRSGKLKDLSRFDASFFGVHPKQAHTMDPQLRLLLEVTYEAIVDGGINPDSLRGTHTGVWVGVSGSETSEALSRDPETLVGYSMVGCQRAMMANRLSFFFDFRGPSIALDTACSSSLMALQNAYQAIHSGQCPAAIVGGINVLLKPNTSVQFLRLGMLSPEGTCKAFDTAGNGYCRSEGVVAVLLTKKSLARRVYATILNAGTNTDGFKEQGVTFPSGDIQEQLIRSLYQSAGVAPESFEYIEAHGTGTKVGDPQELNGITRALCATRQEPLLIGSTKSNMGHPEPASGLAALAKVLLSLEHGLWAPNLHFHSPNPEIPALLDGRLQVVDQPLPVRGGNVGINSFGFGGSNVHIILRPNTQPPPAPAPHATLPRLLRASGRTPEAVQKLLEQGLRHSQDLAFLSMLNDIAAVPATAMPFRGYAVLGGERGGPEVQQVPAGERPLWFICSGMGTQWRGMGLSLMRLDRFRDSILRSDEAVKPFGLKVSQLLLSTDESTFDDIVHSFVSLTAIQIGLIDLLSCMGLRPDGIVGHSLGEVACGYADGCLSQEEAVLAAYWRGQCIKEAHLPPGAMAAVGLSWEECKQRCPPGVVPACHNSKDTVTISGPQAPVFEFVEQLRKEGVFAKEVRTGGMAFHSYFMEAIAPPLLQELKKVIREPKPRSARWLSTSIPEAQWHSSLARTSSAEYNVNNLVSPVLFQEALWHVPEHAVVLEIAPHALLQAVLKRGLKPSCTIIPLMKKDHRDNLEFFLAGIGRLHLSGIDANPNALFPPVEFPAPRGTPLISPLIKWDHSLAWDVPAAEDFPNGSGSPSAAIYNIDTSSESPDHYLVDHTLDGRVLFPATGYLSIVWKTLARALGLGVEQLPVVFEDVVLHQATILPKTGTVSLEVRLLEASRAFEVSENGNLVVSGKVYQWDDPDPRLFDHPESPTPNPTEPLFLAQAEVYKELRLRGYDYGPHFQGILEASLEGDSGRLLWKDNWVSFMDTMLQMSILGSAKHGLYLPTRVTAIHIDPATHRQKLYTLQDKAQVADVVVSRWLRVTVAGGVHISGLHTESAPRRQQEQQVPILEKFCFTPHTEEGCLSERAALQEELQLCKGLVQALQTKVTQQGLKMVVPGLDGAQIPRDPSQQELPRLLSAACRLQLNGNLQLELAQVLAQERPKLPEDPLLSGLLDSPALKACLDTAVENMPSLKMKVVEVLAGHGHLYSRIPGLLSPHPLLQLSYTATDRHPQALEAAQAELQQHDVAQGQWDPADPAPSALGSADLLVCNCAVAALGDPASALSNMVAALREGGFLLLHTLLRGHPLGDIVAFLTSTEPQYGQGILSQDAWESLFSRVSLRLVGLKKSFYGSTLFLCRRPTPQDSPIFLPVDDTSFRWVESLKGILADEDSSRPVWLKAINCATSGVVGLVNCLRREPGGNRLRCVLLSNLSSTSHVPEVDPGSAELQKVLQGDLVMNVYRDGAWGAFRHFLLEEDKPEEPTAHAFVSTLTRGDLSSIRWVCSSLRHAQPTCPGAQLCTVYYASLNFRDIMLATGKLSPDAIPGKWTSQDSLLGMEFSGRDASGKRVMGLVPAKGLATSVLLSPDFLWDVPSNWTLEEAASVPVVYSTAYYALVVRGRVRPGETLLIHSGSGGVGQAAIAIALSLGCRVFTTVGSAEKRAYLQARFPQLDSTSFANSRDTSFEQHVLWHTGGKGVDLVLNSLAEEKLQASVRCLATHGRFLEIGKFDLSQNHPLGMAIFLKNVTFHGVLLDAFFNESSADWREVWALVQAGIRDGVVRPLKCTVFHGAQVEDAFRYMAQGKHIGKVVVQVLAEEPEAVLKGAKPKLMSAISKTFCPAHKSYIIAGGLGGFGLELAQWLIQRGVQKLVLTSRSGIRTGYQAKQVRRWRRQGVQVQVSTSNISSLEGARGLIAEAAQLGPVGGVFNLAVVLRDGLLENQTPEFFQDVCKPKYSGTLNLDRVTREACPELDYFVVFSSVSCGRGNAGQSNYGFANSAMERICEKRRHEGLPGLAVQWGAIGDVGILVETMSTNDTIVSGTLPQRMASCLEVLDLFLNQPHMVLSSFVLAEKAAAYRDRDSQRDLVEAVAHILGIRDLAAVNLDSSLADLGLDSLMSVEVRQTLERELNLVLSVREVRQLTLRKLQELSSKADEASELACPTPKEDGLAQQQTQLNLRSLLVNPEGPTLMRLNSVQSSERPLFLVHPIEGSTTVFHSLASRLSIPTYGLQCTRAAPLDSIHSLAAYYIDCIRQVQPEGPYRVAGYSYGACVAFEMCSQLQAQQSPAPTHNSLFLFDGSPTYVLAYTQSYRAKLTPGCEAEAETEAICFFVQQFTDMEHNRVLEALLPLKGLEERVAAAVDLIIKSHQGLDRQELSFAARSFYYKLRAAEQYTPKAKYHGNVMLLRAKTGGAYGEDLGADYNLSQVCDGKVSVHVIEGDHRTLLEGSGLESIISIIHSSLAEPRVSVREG

| Compound | IC50 [1] [µM] | melting point | IC50 [2] [µM] | IC50 [3] [µM] | IC50 [4] [µM] | effects in cell death / morphology changes in non-malignant cells [4] | inhibition of FASN activity (in words) (FASN) | FASN activity reduced to (FASN; SK-Br3 cells) [%] | FASN activity, % of control cells (FASN; SK-Br3 cells, 24 h exposure) [%] |
| --- | --- | --- | --- | --- | --- | --- | --- | --- | --- |
| Cc1c(O)cc(C(=O)Oc2ccc(OC(=O)c3cc(O)c(C)c(O)c3)c3c2CCCC3)cc1O [aa, 1,4-bis[(3,5-dihydroxy-4-methylbenzoyl)oxy]-5,6,7,8-tetrahydronaphthalene] | 49.5 ± 4.9 | 204 °C (dec.) | – | – | – | – | – | – | – |
| O=C(Oc1ccc(OC(=O)c2ccc(O)c(O)c2)c2ccccc12)c1ccc(O)c(O)c1 [k, 1,4-bis[(3,4-dihydroxybenzoyl)oxy]naphthalene] | 37.5 ± 6.4 | – | 49.3 ± 10 | 27 ± 11.3 | 68 | No significant effects | inhibit FASN activity | 44 | – |
| COC(=O)c1cc(OC(=O)c2cc(O)c(O)c(O)c2)c2ccccc2c1OC(=O)c1cc(O)c(Br)c(O)c1 [cc, methyl 1-[(4-bromo-3,5-dihydroxybenzoyl)oxy]-4-[(3,4,5-trihydroxybenzoyl)oxy]-2-naphthoate] | 16.5 ± 4.9 | – | – | – | 91.5 ± 2.1 | No significant effects | – | – | – |
| O=C(Oc1ccc(OC(=O)c2ccccc2)c(-c2ccccc2)c1)c1cc(O)c(O)c(O)c1 [p, 6-(benzoyloxy)-1,1′-biphenyl-3-yl 3,4,5-trihydroxybenzoate] | 73.5 ± 4.9 | 82 to 84 °C | – | > 150 | – | – | – | – | – |
| Cc1cc(OC(=O)c2cc(O)c(O)c(O)c2)ccc1OC(=O)c1cc(O)c(O)c(O)c1 [c, 2-methyl-1,4-bis[(3,4,5-trihydroxybenzoyl)oxy]benzene] | 23.3 ± 2.1 | – | 4.5 | 54.7 ± 7.6 | > 100 | No significant effects | – | – | – |
| COc1cc(C(=O)Oc2cc(OC(=O)c3cc(O)c(O)c(OC)c3)c3ccccc3c2)cc(O)c1O [x, 1,3-bis[(3,4-dihydroxy-5-methoxybenzoyl)oxy]naphthalene] | 3 | 260 °C (dec.) | – | – | – | – | – | – | – |
| COC(=O)c1cc(OC(=O)c2cc(O)c(O)c(O)c2)c2ccccc2c1OC(=O)c1ccc(O)cc1 [ee, methyl 1-[(4-hydroxybenzoyl)oxy]-4-[(3,4,5-trihydroxybenzoyl)oxy]-2-naphthoate] | 33 ± 1.4 | – | – | – | 67.5 ± 4.9 | No significant effects | – | – | – |
| O=C(Oc1cc(OC(=O)c2cc(O)cc(O)c2)c2ccccc2c1)c1cc(O)cc(O)c1 [g, 1,3-bis[(3,5-dihydroxybenzoyl)oxy]naphthalene] | 107 ± 29.7 | 167 to 169 °C | – | 121 ± 5.7 | – | – | – | – | – |
| O=C(Oc1ccc(OC(=O)c2cc(O)c(O)c(O)c2)c2c1CCCC2)c1cc(O)c(O)c(O)c1 [z, 1,4-bis[(3,4,5-trihydroxybenzoyl)oxy]-5,6,7,8-tetrahydronaphthalene] | 41 ± 3 | – | 43 ± 10 | 104 ± 10 | 128 ± 32 | No significant effects | – | – | – |
| O=C(Oc1cc(OC(=O)c2cc(O)c(Br)c(O)c2)c2ccccc2c1)c1cc(O)c(Br)c(O)c1 [w, 1,3-bis[(4-bromo-3,5-dihydroxybenzoyl)oxy]naphthalene] | 46.7 ± 11.7 | – | – | – | 79.5 ± 14.8 | No significant effects | – | – | – |
| COc1cc(OC(=O)c2cc(O)c(O)c(O)c2)ccc1OC(=O)c1cc(O)c(O)c(O)c1 [d, 2-methoxy-1,4-bis[(3,4,5-trihydroxybenzoyl)oxy]benzene] | 8.3 ± 1.1 | – | 30 ± 0.1 | 28 ± 1 | > 50 | No significant effects | – | – | – |
| O=C(Oc1ccc(-c2ccc(OC(=O)c3ccc(O)c(O)c3)cc2)cc1)c1ccc(O)c(O)c1 [t, 4,4′-bis[(3,4-dihydroxybenzoyl)oxy]-1,1′-biphenyl] | 90 | 286 °C (dec.) | – | – | – | – | – | – | – |
| COC(=O)c1cc(OC(=O)c2cc(O)c(O)c(O)c2)c2ccccc2c1OC(=O)c1cccc(O)c1 [dd, methyl 1-[(3-hydroxybenzoyl)oxy]-4-[(3,4,5-trihydroxybenzoyl)oxy]-2-naphthoate] | 15.5 ± 3.5 | – | – | – | 39.5 ± 6.4 | No significant effects | – | – | – |
| O=C(Oc1cccc2c(OC(=O)c3cc(O)c(O)c(O)c3)cccc12)c1cc(O)c(O)c(O)c1 [m, 1,5-bis[(3,4,5-trihydroxybenzoyl)oxy]naphthalene] | 25.7 ± 3 | – | 69 ± 14 | 186 ± 10 | > 150 | No significant effects | inhibit FASN activity; also recorded: decreased in a time-dependent manner | 77 | 76 |
| COc1cc(C(=O)Oc2ccc(-c3ccc(OC(=O)c4ccc(O)c(O)c4)cc3)cc2)cc(O)c1O [v, 4′[(3,4-dihydroxybenzoyl)oxy]-1,1′-biphenyl-4-yl 3,4-dihydroxy-5-methoxybenzoate] | < 1 | 240 °C (dec.) | – | – | – | – | – | – | – |
| O=C(Oc1ccc(-c2ccc(OC(=O)c3cc(O)nc(O)c3)cc2)cc1)c1cc(O)nc(O)c1 [r, 4,4′-bis[(2,6-dihydroxyisonicotinoyl)oxy]-1,1′-biphenyl] | – | 285 °C (dec.) | – | – | – | – | – | – | – |
| O=C(Oc1cc2c(c(OC(=O)c3cc(O)c(O)c(O)c3)c1)CCCC2)c1cc(O)c(O)c(O)c1 [y, 1,3-bis[(3,4,5-trihydroxybenzoyl)oxy]-5,6,7,8-tetrahydronaphthalene] | 31 ± 3 | – | 81 ± 16 | 98 ± 11 | > 150 | No significant effects | – | – | – |
| O=C(Oc1ccc2cc(OC(=O)c3cc(O)c(O)c(O)c3)ccc2c1)c1cc(O)c(O)c(O)c1 [l, 2,6-bis[(3,4,5-trihydroxybenzoyl)oxy]naphthalene] | 5.5 ± 1 | – | 13 ± 1.8 | 15.3 ± 1 | > 200 | No significant effects | – | – | – |
| O=C(Oc1ccc(-c2ccc(OC(=O)c3cc(O)c(Br)c(O)c3)cc2)cc1)c1ccc(O)c(O)c1 [u, 4′[(3,4-dihydroxybenzoyl)oxy]-1,1′-biphenyl-4-yl 4-bromo-3,5-dihydroxybenzoate] | 31 | 252 to 254 °C | – | – | – | – | – | – | – |
| O=C(Oc1cc(OC(=O)c2ccc(O)c(O)c2)c2ccccc2c1)c1ccc(O)c(O)c1 [h, 1,3-bis[(3,4-dihydroxybenzoyl)oxy]naphthalene] | 20.7 ± 11.5 | – | – | 19 ± 1.1 | 105 | No significant effects | inhibit FASN activity | 77 | – |
| O=C(Oc1ccc(-c2ccc(OC(=O)c3cc(O)cc(O)c3)cc2)cc1)c1cc(O)cc(O)c1 [s, 4,4′-bis[(3,5-dihydroxybenzoyl)oxy]-1,1′-biphenyl] | 7.3 ± 2 | – | – | 5.75 ± 2 | 33 ± 3 | No significant effects | – | – | – |
